The text below walks through data of patent US11535585B2, “Nitrobenzyl derivatives of anti-cancer agents” (OBI PHARMA, INC., priority 2015, dated 2022).

SMILES strings stand for the structures. Read-outs that look alike come from different tables or passages of the source.

The target of one experiment is T1, AKR1C3 (Homo sapiens, UniProt P42330).
T1 sequence (P42330 1-323): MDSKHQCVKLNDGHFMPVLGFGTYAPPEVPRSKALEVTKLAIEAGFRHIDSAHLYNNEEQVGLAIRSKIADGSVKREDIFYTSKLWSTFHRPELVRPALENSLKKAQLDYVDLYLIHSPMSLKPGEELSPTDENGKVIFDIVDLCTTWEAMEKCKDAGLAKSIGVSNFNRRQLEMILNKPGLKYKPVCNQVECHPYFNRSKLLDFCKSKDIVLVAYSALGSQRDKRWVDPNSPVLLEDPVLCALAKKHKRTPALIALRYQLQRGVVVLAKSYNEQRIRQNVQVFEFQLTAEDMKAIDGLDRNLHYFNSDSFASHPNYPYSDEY
Conditions: cited from earlier work.

For experiment [1] the following is noted: tested as water soluble phosphate prodrug PR 104P; cited from earlier work.
Experiment [2] relates to H460 non cell lung cancer human tumor cell line. The experiment in a line: In vitro human tumor cell line cytotoxicity / proliferation assay (AlamarBlue) with and without AKR1C3 inhibitor. It is filed as cell-based. The method, then: In vitro proliferation data on the H460 […] human tumor cell line is determined based on IC50 measured by exposure of compounds at various concentrations for 2 hrs followed by a wash step and addition of fresh media followed by growth and cell viability staining and comparison to a media only treated control.
Specifically, exponentially growing cells are seeded at a density of 4×10^3 cells per well in a 96 well plate and incubated at 37° C. in 5% CO2, 95% air and 100% relative humidity for 24 hours prior to addition of test compounds. Compounds are solubilized in 100% DMSO at 200 times the desired final test concentration. At the time of drug addition, compounds are further diluted to 4 times the desired final concentration with complete medium. Aliquots of 50 μl of compound at specified concentrations are added to microtiter wells already containing 150 μl of medium, resulting in the final drug concentration reported. After drug addition the plates are incubated 72 hrs at 37° C., 5% CO2, 95% air and 100% relative humidity. At the end of this incubation, the viable cells are quantified using the AlamarBlue assay. The drug concentration resulting in growth inhibition of 50% (IC50) is calculated using Prism software (Irvine, Calif.).
Cell proliferation were performed in the presence (3 micromolar) and absence of a specific inhibitor of the AKR 1C3 enzyme. The case of added inhibitor was added to cell culture 2 hours prior to compound treatment. The inhibitor used was compound 36 in Flanagan, et al, Bioorganic and Medicinal Chemistry (2014) p 962-977.
Proliferation data of TH compounds in H460 in the presence/absence of the specific AKR 1C3 inhibitor
Background: The colour change of resazurin is a common sign of viable cells or microbes.

Where [3] appears, read: NCI-H460, H460 cells, absence of specific AKR 1C3 inhibitor, read-out: IC50 (without inhibitor).
Where [4] appears, read: NCI-H460, H460 cells, presence of 3 micromolar specific AKR 1C3 inhibitor added 2 hours prior to compound treatment, read-out: IC50 (with inhibitor).

In general, IC50 refers to the concentration that gives 50% inhibition.

Turning to `CS(=O)(=O)OCCN(CCBr)c1c(C(=O)NCCO)cc([N+](=O)[O-])cc1[N+](=O)[O-]` [PR 104], the “substrate for AKR1C3” value at AKR1C3 is reported as “weak substrate”. The “efficacy in clinical trials” value in experiment [1] is reported as “ineffective”.

As for `CC(=O)O[C@H]1C(=O)[C@@]2(C)[C@H]([C@H](OC(=O)c3ccccc3)[C@]3(O)C[C@H](OC(=O)[C@H](OC(=O)N(C)CCN(C)C(=O)OCc4ccc([N+](=O)[O-])c(Oc5ccc6ncccc6c5)c4)[C@@H](NC(=O)c4ccccc4)c4ccccc4)C(C)=C1C3(C)C)[C@]1(OC(C)=O)CO[C@@H]1C[C@@H]2O` [TH3047], the IC50 was found to be 30 nM in experiment [2] (setting [3]) and 30000 nM in experiment [2] (setting [4]).

Regarding `CC(=O)O[C@H]1C(=O)[C@@]2(C)[C@H]([C@H](OC(=O)c3ccccc3)[C@]3(O)C[C@H](OC(=O)[C@H](OC(=O)N(C)CCN(C)C(=O)OC(C)c4ccc([N+](=O)[O-])c(Oc5ccc6ncccc6c5)c4)[C@@H](NC(=O)c4ccccc4)c4ccccc4)C(C)=C1C3(C)C)[C@]1(OC(C)=O)CO[C@@H]1C[C@@H]2O` (stereo partly shown) [TH3054], the results for the IC50 in experiment [2] (setting [3]) and in experiment [2] (setting [4]) were 30 nM and 91000 nM, respectively.

On to `CCN(CCCCBr)P(=O)(OCc1ccc([N+](=O)[O-])c(Oc2ccc(-c3ccccc3)cc2)c1)OCC1OC(n2ccc(N)nc2=O)C(F)(F)C1O` (stereo not shown) [TH3057], for which the IC50 in experiment [2] (NCI-H460, read-out: IC50 (without inhibitor)) was determined as 200 nM.
